Several values for one entry are separate records, joined by “and”; a condition that tells them apart may be missing. Equal entries are not always repeated. Activity calls are given as the source filed them. How the calls were made is not given here.
Test system: rodent lifetime carcinogenesis bioassay, tumor incidence TD50
Assay: carcinogenic potency in animals, long-term in vivo studies, CPDB compilation (AID 1745844)
Details: inhaled, dosed 104 weeks, study length 104 weeks; for carcinogen call: site: liver, lesion: one or several types, types not named

Structure (SMILES): C=CC(=C)Cl
- TD50 (mouse, strain B6C3F1, males, site: lung, lesion: alveolar/bronchiolar adenoma + alveolar/bronchiolar carcinoma): 17.2 mg/kg/day
- TD50 (mouse, strain B6C3F1, males, site: lung, lesion: alveolar/bronchiolar adenoma): 30.7 mg/kg/day
- TD50 (mouse, strain B6C3F1, males, site: lung, lesion: alveolar/bronchiolar carcinoma): 26.4 mg/kg/day
- TD50 (mouse, strain B6C3F1, males, site: mesentery, lesion: hemangioma + hemangiosarcoma): 37.6 mg/kg/day
- TD50 (mouse, strain B6C3F1, males, site: mesentery, lesion: hemangiosarcoma): 39 mg/kg/day
- TD50 (mouse, strain B6C3F1, males, site: subcutaneous tissue, lesion: hemangiosarcoma): 177 mg/kg/day
- TD50 (rat, strain Fischer 344, females, site: all sites, lesion: mononuclear-cell leukemia): 30.4 mg/kg/day
- TD50 (rat, strain Fischer 344, females, site: any site (literature study), lesion: several types, types named in the paper): 25.4 mg/kg/day
- TD50 (rat, strain Fischer 344, females, site: clitoral gland, lesion: adenoma + adenoma, bilateral + carcinoma + carcinoma, bilateral): 7.14 mg/kg/day
- TD50 (rat, strain Fischer 344, females, site: clitoral gland, lesion: carcinoma + carcinoma, bilateral): 12.4 mg/kg/day
- TD50 (rat, strain Fischer 344, females, site: kidney, lesion: tubule adenoma + tubule carcinoma): 183 mg/kg/day
- TD50 (rat, strain Fischer 344, females, site: kidney, lesion: tubule adenoma): 461 mg/kg/day and 183 mg/kg/day
- TD50 (rat, strain Fischer 344, females, site: lung, lesion: alveolar/bronchiolar adenoma): 279 mg/kg/day
- TD50 (rat, strain Fischer 344, females, site: mammary gland, lesion: carcinoma + fibroadenoma): 20.4 mg/kg/day
- TD50 (rat, strain Fischer 344, females, site: mammary gland, lesion: fibroadenoma): 16.3 mg/kg/day
- TD50 (rat, strain Fischer 344, females, site: oral mucosa + gingiva + mammary gland + pharynx + thyroid gland + tongue, lesion: squamous-cell papilloma + carcinoma + fibroadenoma + squamous-cell carcinoma + follicular-cell adenoma + follicular-cell carcinoma): 23.3 mg/kg/day
- TD50 (rat, strain Fischer 344, females, site: oral mucosa + gingiva + pharynx + tongue, lesion: squamous-cell papilloma + squamous-cell carcinoma): 33.9 mg/kg/day
- TD50 (rat, strain Fischer 344, females, site: oral mucosa + gingiva + pharynx + tongue, lesion: squamous-cell papilloma): 61.2 mg/kg/day
- TD50 (rat, strain Fischer 344, females, site: pharynx + tongue, lesion: squamous-cell carcinoma): 77.8 mg/kg/day
- TD50 (rat, strain Fischer 344, females, site: thyroid gland, lesion: follicular-cell adenoma + follicular-cell carcinoma): 113 mg/kg/day
- TD50 (rat, strain Fischer 344, females, site: tongue, lesion: squamous-cell carcinoma + squamous-cell papilloma): 32.9 mg/kg/day
- TD50 (rat, strain Fischer 344, females, site: tongue, lesion: squamous-cell carcinoma): 91.1 mg/kg/day
- TD50 (rat, strain Fischer 344, females, site: tongue, lesion: squamous-cell papilloma): 53.5 mg/kg/day
- TD50 (rat, strain Fischer 344, females, site: urinary bladder, lesion: transitional-cell carcinoma): 467 mg/kg/day
- TD50 (rat, strain Fischer 344, males, site: all sites, lesion: mesothelioma, malignant): 27.1 mg/kg/day
- TD50 (rat, strain Fischer 344, males, site: any site (literature study), lesion: several types, types named in the paper): 6.12 mg/kg/day
- TD50 (rat, strain Fischer 344, males, site: kidney, lesion: tubule adenoma + tubule carcinoma): 16.1 mg/kg/day
- TD50 (rat, strain Fischer 344, males, site: kidney, lesion: tubule adenoma): 38.9 mg/kg/day and 15.4 mg/kg/day
- TD50 (rat, strain Fischer 344, males, site: lung, lesion: alveolar/bronchiolar adenoma + alveolar/bronchiolar carcinoma): 23.8 mg/kg/day
- TD50 (rat, strain Fischer 344, males, site: lung, lesion: alveolar/bronchiolar carcinoma): 24.5 mg/kg/day
- TD50 (rat, strain Fischer 344, males, site: oral mucosa + gingiva + lung + pharynx + thyroid gland + tongue, lesion: squamous-cell papilloma + alveolar/bronchiolar adenoma + alveolar/bronchiolar carcinoma + follicular-cell adenoma + follicular-c): 5.79 mg/kg/day
- TD50 (rat, strain Fischer 344, males, site: oral mucosa + gingiva + pharynx + tongue, lesion: squamous-cell papilloma + squamous-cell carcinoma): 10.1 mg/kg/day
- TD50 (rat, strain Fischer 344, males, site: oral mucosa + gingiva + pharynx + tongue, lesion: squamous-cell papilloma): 11.1 mg/kg/day
- TD50 (rat, strain Fischer 344, males, site: oral mucosa + gingiva + pharynx, lesion: squamous-cell papilloma): 39.2 mg/kg/day
- TD50 (rat, strain Fischer 344, males, site: thyroid gland, lesion: c-cell adenoma): 20 mg/kg/day
- TD50 (rat, strain Fischer 344, males, site: thyroid gland, lesion: follicular-cell adenoma + follicular-cell carcinoma): 18.7 mg/kg/day
- TD50 (rat, strain Fischer 344, males, site: thyroid gland, lesion: follicular-cell adenoma): 22 mg/kg/day
- TD50 (rat, strain Fischer 344, males, site: tongue, lesion: squamous-cell carcinoma + squamous-cell papilloma): 13.6 mg/kg/day
- TD50 (rat, strain Fischer 344, males, site: tongue, lesion: squamous-cell papilloma): 15.6 mg/kg/day
- TD50 (rat, strain Fischer 344, males, site: urinary bladder, lesion: transitional-cell carcinoma): 99.9 mg/kg/day
- TD50 (rat, strain Fischer 344, males, site: urinary bladder, lesion: transitional-cell papilloma): 468 mg/kg/day
- TD50 (rat, strain Wistar-random, females, site: any site (literature study), lesion: several types, types named in the paper): 37.4 mg/kg/day (inactive)
- carcinogen call (rat, strain Wistar-random, females): negative (inactive)
- TD50 (rat, strain Wistar-random, females, site: mammary gland, lesion: fibroadenoma): 55.1 mg/kg/day (inactive)
- TD50 (rat, strain Wistar-random, males, site: any site (literature study), lesion: several types, types named in the paper): 66.4 mg/kg/day (inactive)
- carcinogen call (rat, strain Wistar-random, males): negative (inactive)

Source: PubChem BioAssay AID1745844 (Carcinogenic Potency Database (CPDB), 2022)
